In the assay the target is T1, bradykinin 1 receptor (B1R) of the rat (Rattus norvegicus, UniProt P97583).
T1 construct: expressed in transfected cells; host or cells: CHO K1 cells
T1 sequence (P97583 1-337): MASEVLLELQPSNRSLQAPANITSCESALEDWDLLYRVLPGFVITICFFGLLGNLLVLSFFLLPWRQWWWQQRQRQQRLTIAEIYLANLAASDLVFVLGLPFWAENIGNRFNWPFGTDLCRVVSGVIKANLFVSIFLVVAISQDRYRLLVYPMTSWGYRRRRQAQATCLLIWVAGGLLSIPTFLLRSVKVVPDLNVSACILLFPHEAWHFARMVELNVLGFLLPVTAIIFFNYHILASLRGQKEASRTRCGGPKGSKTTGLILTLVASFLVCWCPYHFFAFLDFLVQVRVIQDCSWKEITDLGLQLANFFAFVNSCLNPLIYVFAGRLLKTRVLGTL
As to the kind of experiment: Functional investigation on the rat bradykinin 1 receptor (B1R), Ca2+ FLIPR assay in CHO K1 rB1R cells. The assay is classed as cell-based. The following applies: B1R antagonism rat; test substance 10 μM; Ca2+ FLIPR, CHO K1 rB1R cells. The method, boiled down: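 Stably transfected CHO K1 cells loaded with Fluo-4; FLIPR Ca2+ fluorescence peak (ex 488/em 540 nm). Compound added first (agonism vs Lys-Des-Arg9-bradykinin ≥50 nM human, Des-Arg9-bradykinin 10 μM rat), then after 10-20 min agonist at EC80; antagonism as % inhibition, IC50 from concentration series, n=2-3, N≥2.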

For `CN(C)C(c1cccc(F)c1)C1CCC(CNC(=O)COCCC2CCN(S(=O)(=O)c3ccccc3)CC2)CC1` (stereo not shown) [Example 333], the “B1R Ant. r [10 μM] % Inhibition” value came out at 15%.
As for `CN(C)C(c1ccc(F)cc1)C1CCC(CNC(=O)COCCN(C)S(=O)(=O)c2c(Cl)cccc2Cl)CC1` (stereo not shown) [Example 334], the figure is 83%; as for `CN(C)C(c1cccc(F)c1)C1CCC(NC(=O)COC2CCN(S(=O)(=O)c3ccccc3)CC2)CC1` (stereo not shown) [Example 335], 2%.
Under `CN(C)C(c1ccc(F)cc1)C1CCC(NC(=O)COCCN(Cc2ccccc2)S(=O)(=O)c2ccccc2)CC1` (stereo not shown) [Example 336] stands 8%; under `CN(C)C(c1ccc(F)cc1)C1CCC(CCNC(=O)COCC2CCCCN2S(=O)(=O)c2ccc(Cl)c(Cl)c2)CC1` (stereo not shown) [Example 337], −23%; under `COc1ccc(S(=O)(=O)N2CCC(OCC(=O)NCCC3CCC(C(c4ccc(Cl)cc4)N(C)C)CC3)C2)cc1OC` (stereo not shown) [Example 338], 27%.
Under `COc1ccc(S(=O)(=O)N(C)CCOCC(=O)NCCC2CCC(C(c3ccc(Cl)cc3)N(C)C)CC2)cc1OC` (stereo not shown) [Example 339] stands 31%; under `COc1ccc(S(=O)(=O)N(C)CCOCC(=O)NCC2CCC(C(c3cccc(F)c3)N(C)C)CC2)cc1` (stereo not shown) [Example 340], 23%; under `CN(C)C(c1cccs1)C1CCC(NC(=O)COCCN2CCN(S(=O)(=O)c3ccccc3)CC2)CC1` (stereo not shown) [Example 341], 18%.
Turning to `CN(C)C(c1ccc(F)cc1)C1CCC(CNC(=O)COCCN(Cc2ccccc2)S(=O)(=O)c2ccccc2)CC1` (stereo not shown) [Example 342], the “B1R Ant. r [10 μM] % Inhibition” value is given as −20%.
As for `CN(C)C(c1ccc(Cl)cc1)C1CCC(CNC(=O)COCCN(Cc2ccccc2)S(=O)(=O)c2ccccc2)CC1` (stereo not shown) [Example 343], the figure is −15%; as for `CN(C)C(c1ccc(F)cc1)C1CCC(NC(=O)COCC2CCCN2S(=O)(=O)c2ccc(Cl)c(Cl)c2)CC1` (stereo not shown) [Example 344], 12%; as for `COc1ccc(S(=O)(=O)N2CCCCC2COCC(=O)NCC2CCC(C(c3ccc(F)cc3)N(C)C)CC2)cc1` (stereo not shown) [Example 345], 77%.
Under `COc1ccc(S(=O)(=O)N2CCCC2COCC(=O)NCCC2CCC(C(c3ccc(Cl)cc3)N(C)C)CC2)cc1` (stereo not shown) [Example 346] stands 45%.
On to `CN(C)C(c1ccc(Cl)cc1)C1CCC(CCNC(=O)COCCN(C)S(=O)(=O)c2ccc(Cl)cc2)CC1` (stereo not shown) [Example 347], for which the “B1R Ant. r [10 μM] % Inhibition” value turned out to be 56%.
As for `COc1cc(C)c(S(=O)(=O)N(C)CCOCC(=O)NCC2CCC(C(c3ccc(Cl)cc3)N(C)C)CC2)c(C)c1` (stereo not shown) [Example 348], the figure is 99%.
Regarding `COc1ccc(S(=O)(=O)N2CCCCC2COCC(=O)NCCC2CCC(C(c3ccc(F)cc3)N(C)C)CC2)cc1` (stereo not shown) [Example 349], the “B1R Ant. r [10 μM] % Inhibition” value is on record as 77%.
With `COc1ccc(S(=O)(=O)N2CCCCC2CCOCC(=O)NCC2CCC(C(c3ccc(F)cc3)N(C)C)CC2)cc1` (stereo not shown) [Example 350], the “B1R Ant. r [10 μM] % Inhibition” value is 35%.
Under `COc1ccc(S(=O)(=O)N2CCCC2COCC(=O)NCC2CCC(C(c3ccc(Cl)cc3)N(C)C)CC2)cc1` (stereo not shown) [Example 351] stands 34%; under `COc1ccc(S(=O)(=O)N2CCCCC2COCC(=O)NC2CCC(C(c3cccc(F)c3)N(C)C)CC2)cc1OC` (stereo not shown) [Example 352], −13%; under `COc1cc(C)c(S(=O)(=O)N(C)CCOCC(=O)NCCC2CCC(C(c3ccc(F)cc3)N(C)C)CC2)c(C)c1C` (stereo not shown) [Example 354], 44%.
As for `CN(C)C(c1cccc(F)c1)C1CCC(CNC(=O)COC2CCN(S(=O)(=O)c3ccccc3)C2)CC1` (stereo not shown) [Example 355], the figure is 28%.
Under `CN(C)C(c1ccc(F)cc1)C1CCC(NC(=O)COCCN(C)S(=O)(=O)c2ccc(Cl)cc2Cl)CC1` (stereo not shown) [Example 356] stands 43%; under `CN(C)C(c1ccc(F)cc1)C1CCC(NC(=O)COCCN(C)S(=O)(=O)c2ccc(F)cc2)CC1` (stereo not shown) [Example 357], 27%.
Consider `COc1cc(C)c(S(=O)(=O)N(CCOCC(=O)NCCC2CCC(C(c3cccc(F)c3)N(C)C)CC2)Cc2ccccc2)c(C)c1` (stereo not shown) [Example 358], for which the “B1R Ant. r [10 μM] % Inhibition” value is listed as 27%.
Under `CN(C)C(c1ccc(F)cc1)C1CCC(CNC(=O)COC2CCCCC2N(C)S(=O)(=O)c2ccc(Cl)c(Cl)c2)CC1` (stereo not shown) [Example 359] stands −4%; under `CN(C)C(c1ccc(F)cc1)C1CCC(NC(=O)COCCN(C)S(=O)(=O)c2ccc(OC(F)(F)F)cc2)CC1` (stereo not shown) [Example 361], 31%.
Under `Cc1ccc(S(=O)(=O)N(C)CCOCC(=O)NCC2CCC(C(c3ccc(F)cc3)N(C)C)CC2)cc1` (stereo not shown) [Example 362] stands 3%.

The values are drawn from patent US8106055B2, “Substituted amide compounds” (Gruenenthal GmbH, priority 2007, dated 2012).
